# According to patent publication US11959083B2, “Immunosuppression-reverting oligonucleotides inhibiting the expression of CD39” (Secarna Pharmaceuticals GmbH & Co. KG, priority 2016, dated 2024):
# l = locked nucleic acid (LNA); d = 2'-deoxy (DNA)
# Test system: mCD39 mRNA
# Experiment: mCD39 mRNA knockdown efficacy screen in A20 cells (single dose, gymnotic delivery, QuantiGene Singleplex)
# Type: cell-based, mouse
# Conditions: 10 μM, three days, normalized to HPRT1
# Experimental: FIG. 14-1 and 14-2 show mCD39 mRNA knockdown efficacy of mCD39 antisense oligonucleotides in the murine cancer cell line A20 (mouse B cell lymphoma). A20 cells were treated with a single dose of 10 μM of the respective antisense oligonucleotide. As negative control, cells were treated with neg1, an antisense oligonucleotide having the sequence CGTTTAGGCTATGTACTT (SEQ ID NO:99). Residual mCD39 mRNA expression relative to untreated cells is depicted. Expression values were normalized to expression of the housekeeping gene HPRT1.
# In order to analyze the efficacy of mCD39 antisense oligonucleotides with regard to the knockdown of mCD39 mRNA expression in a cancer cell line, A20 (mouse B cell lymphoma, ATCC) cells were treated with a single dose (concentration: 10 μM without addition of any transfection reagent; this process is called gymnotic delivery) of the respective antisense oligonucleotide as indicated in FIG. 14. As control, cells were treated with neg1, an antisense oligonucleotide having the sequence CGTTTAGGCTATGTACTT (SEQ ID NO:99). mCD39 and HPRT1 mRNA expression was analyzed after three days using the QuantiGene Singleplex assay (Affymetrix) and mCD39 expression values were normalized to HPRT1 expression values.
row,Substance,Relative mCD39 mRNA expression (compared to non-treated cells)
1,"+A*+G*+A*T*C*C*A*A*A*G*C*G*C*+C*+A*+A (antisense AGATCCAAAGCGCCAA; sugars from the 5' end l3 d10 l3, all phosphorothioate, methylation of C not given here) [A04013MR]",0.06
2,"+G*+C*+T*A*T*A*C*T*G*C*C*T*C*+T*+T*+T (antisense GCTATACTGCCTCTTT; sugars from the 5' end l3 d10 l3, all phosphorothioate, methylation of C not given here) [A04019MR]",0.05
3,"+G*+A*+T*C*C*A*A*A*G*C*G*C*+C*+A*+A (antisense GATCCAAAGCGCCAA; sugars from the 5' end l3 d9 l3, all phosphorothioate, methylation of C not given here) [A04002MR]",0.06
4,"+C*+C*+C*A*G*C*A*G*A*T*A*G*T*T*+A*+A*+T (antisense CCCAGCAGATAGTTAAT; sugars from the 5' end l3 d11 l3, all phosphorothioate, methylation of C not given here) [A04024MR]",0.35
5,"+G*+C*+C*C*A*G*C*A*G*A*T*A*G*T*+T*+A*+A (antisense GCCCAGCAGATAGTTAA; sugars from the 5' end l3 d11 l3, all phosphorothioate, methylation of C not given here) [A04025MR]",0.35
6,"+C*+A*+C*T*G*T*T*C*G*T*A*G*T*+C*+T*+C (antisense CACTGTTCGTAGTCTC; sugars from the 5' end l3 d10 l3, all phosphorothioate, methylation of C not given here) [A04014MR]",0.20
7,"+C*+G*+T*T*G*C*T*G*T*C*T*T*T*G*+A*+T*+C (antisense CGTTGCTGTCTTTGATC; sugars from the 5' end l3 d11 l3, all phosphorothioate, methylation of C not given here) [A04031MR]",0.14
8,"+T*+G*+T*T*C*G*T*A*G*T*C*T*C*C*+A*+G*+T (antisense TGTTCGTAGTCTCCAGT; sugars from the 5' end l3 d11 l3, all phosphorothioate, methylation of C not given here) [A04029MR]",0.11
9,"+C*+C*+T*A*G*T*T*G*T*G*T*A*+T*+A*+C (antisense CCTAGTTGTGTATAC; sugars from the 5' end l3 d9 l3, all phosphorothioate, methylation of C not given here) [A04008MR]",0.58
10,"+G*+G*+T*A*C*T*T*C*T*C*C*T*T*+T*+A*+C (antisense GGTACTTCTCCTTTAC; sugars from the 5' end l3 d10 l3, all phosphorothioate, methylation of C not given here) [A04016MR]",0.17
11,"+T*+C*+G*T*A*G*T*C*T*C*C*A*G*T*+G*+C*+C (antisense TCGTAGTCTCCAGTGCC; sugars from the 5' end l3 d11 l3, all phosphorothioate, methylation of C not given here) [A04027MR]",0.03
12,"+A*+G*+C*A*T*T*T*T*G*G*C*A*T*+C*+A*+C (antisense AGCATTTTGGCATCAC; sugars from the 5' end l3 d10 l3, all phosphorothioate, methylation of C not given here) [A04020MR]",0.06
13,"+A*+C*+A*T*T*T*C*T*T*A*C*T*C*+G*+T*+T (antisense ACATTTCTTACTCGTT; sugars from the 5' end l3 d10 l3, all phosphorothioate, methylation of C not given here) [A04022MR]",0.20
14,"+C*+C*+T*A*G*T*T*G*T*G*T*A*T*+A*+C*+T (antisense CCTAGTTGTGTATACT; sugars from the 5' end l3 d10 l3, all phosphorothioate, methylation of C not given here) [A04021MR]",0.35
15,"+A*+G*+T*T*A*T*A*G*C*C*T*T*G*+C*+A*+G (antisense AGTTATAGCCTTGCAG; sugars from the 5' end l3 d10 l3, all phosphorothioate, methylation of C not given here) [A04017MR]",0.07
16,"+G*+G*+T*G*G*C*A*C*T*G*T*T*+C*+G*+T (antisense GGTGGCACTGTTCGT; sugars from the 5' end l3 d9 l3, all phosphorothioate, methylation of C not given here) [A04005MR]",0.15

row,Substance,Relative mCD39 mRNA expression (compared to non-treated cells)
1,"+G*+T*+A*C*A*G*G*T*T*G*G*T*G*+T*+G*+A (antisense GTACAGGTTGGTGTGA; sugars from the 5' end l3 d10 l3, all phosphorothioate, methylation of C not given here) [A04009MR]",0.89
2,"+C*+T*+G*T*T*C*G*T*A*G*T*C*+T*+C*+C (antisense CTGTTCGTAGTCTCC; sugars from the 5' end l3 d9 l3, all phosphorothioate, methylation of C not given here) [A04004MR]",0.17
3,"+G*+T*+T*A*T*A*G*C*C*T*T*G*+C*+A*+G (antisense GTTATAGCCTTGCAG; sugars from the 5' end l3 d9 l3, all phosphorothioate, methylation of C not given here) [A04006MR]",0.06
4,"+C*+C*+A*C*T*T*G*T*A*G*A*T*G*+T*+A*+C (antisense CCACTTGTAGATGTAC; sugars from the 5' end l3 d10 l3, all phosphorothioate, methylation of C not given here) [A04010MR]",0.25
5,"+A*+T*+C*C*A*A*A*G*C*G*C*C*A*A*+A*+G*+G (antisense ATCCAAAGCGCCAAAGG; sugars from the 5' end l3 d11 l3, all phosphorothioate, methylation of C not given here) [A04026MR]",0.04
6,"+G*+G*+T*G*G*C*A*C*T*G*T*T*C*G*+T*+A*+G (antisense GGTGGCACTGTTCGTAG; sugars from the 5' end l3 d11 l3, all phosphorothioate, methylation of C not given here) [A04030MR]",0.21
7,"+T*+A*+C*A*T*T*T*C*T*T*A*C*T*C*+G*+T*+T (antisense TACATTTCTTACTCGTT; sugars from the 5' end l3 d11 l3, all phosphorothioate, methylation of C not given here) [A04033MR]",0.12
8,"+A*+G*+T*A*A*T*C*C*A*C*C*C*+A*+T*+A (antisense AGTAATCCACCCATA; sugars from the 5' end l3 d9 l3, all phosphorothioate, methylation of C not given here) [A04001MR]",0.02
9,"+G*+T*+T*C*G*T*A*G*T*C*T*C*+C*+A*+G (antisense GTTCGTAGTCTCCAG; sugars from the 5' end l3 d9 l3, all phosphorothioate, methylation of C not given here) [A04003MR]",0.07
10,"+G*+C*+T*A*T*A*C*T*G*C*C*T*C*T*+T*+T*+C (antisense GCTATACTGCCTCTTTC; sugars from the 5' end l3 d11 l3, all phosphorothioate, methylation of C not given here) [A04032MR]",0.02
11,"+C*+G*+T*T*G*C*T*G*T*C*T*T*T*+G*+A*+T (antisense CGTTGCTGTCTTTGAT; sugars from the 5' end l3 d10 l3, all phosphorothioate, methylation of C not given here) [A04018MR]",0.18
12,"+T*+T*+C*G*T*A*G*T*C*T*C*C*A*G*+T*+G*+C (antisense TTCGTAGTCTCCAGTGC; sugars from the 5' end l3 d11 l3, all phosphorothioate, methylation of C not given here) [A04028MR]",0.02
13,"+T*+G*+G*C*A*C*T*G*T*T*C*G*T*+A*+G*+T (antisense TGGCACTGTTCGTAGT; sugars from the 5' end l3 d10 l3, all phosphorothioate, methylation of C not given here) [A04015MR]",0.32
14,"+C*+A*+C*A*T*T*A*G*C*T*G*C*+A*+C*+G (antisense CACATTAGCTGCACG; sugars from the 5' end l3 d9 l3, all phosphorothioate, methylation of C not given here) [A04007MR]",0.07
15,"+G*+C*+C*C*A*G*C*A*G*A*T*A*G*+T*+T*+A (antisense GCCCAGCAGATAGTTA; sugars from the 5' end l3 d10 l3, all phosphorothioate, methylation of C not given here) [A04012MR]",0.78
